Data published in patent US20220322719A1, “INTESTINAL HEALTH PROMOTING COMPOSITIONS” (NSE Products, Inc., priority 2016, published 2022).

Tests used:
[1] = 500 mg isotopically labeled, single dose, male subjects (n=8); cited from earlier work
Caco-2 cell monolayers = assay: TNFα-induced decrease of transepithelial electrical resistance (TEER) in Caco-2 monolayers; assay type: cell-based; conditions: FIGS. 17-20

Row | SMILES | adverse effects [1] | time metabolites were present in the circulation [1] | TNFα induced losses of intestinal barrier integrity (TEER) (Caco-2 cell monolayers)
1 | OC[C@H]1O[C@@H](Oc2cc3c(O)cc(O)cc3[o+]c2-c2ccc(O)c(O)c2)[C@H](O)[C@@H](O)[C@@H]1O [cyanidin-3-glucoside] | no adverse effects | less than or equal to 48 hours | 
2 | Oc1cc(O)c2c(c1)OC(c1ccc(O)c(O)c1)C(O)C2 (stereo not drawn) [catechins, catechin] |  |  | prevents TNFα induced losses of intestinal barrier integrity
